The text below walks through data of PubChem BioAssay AID588574 (Sanford-Burnham Center for Chemical Genomics, 2011).

As a reminder, the IC50 is the concentration that inhibits the measured activity by half.

Active and inactive are the calls of the source. No rule for the calls is given here. A value given as a limit tells only on which side of the number the result lay.

The target of this experiment is Caspase-3 (Homo sapiens) + Caspase-9 (Homo sapiens) (UniProt P42574+P55211). Nature of the experiment: inhibition of LZ-caspase-9 coupled caspase-3 activity – biochemical, fluorescence, uHTS hits, selectivity assay, dose response (AID 588574). The following applies: LZ-caspase-9/caspase-3 coupled fluorogenic substrate.
Caspase-3 (Homo sapiens) + Caspase-9 (Homo sapiens), sequence (P42574 whole entry, looked up): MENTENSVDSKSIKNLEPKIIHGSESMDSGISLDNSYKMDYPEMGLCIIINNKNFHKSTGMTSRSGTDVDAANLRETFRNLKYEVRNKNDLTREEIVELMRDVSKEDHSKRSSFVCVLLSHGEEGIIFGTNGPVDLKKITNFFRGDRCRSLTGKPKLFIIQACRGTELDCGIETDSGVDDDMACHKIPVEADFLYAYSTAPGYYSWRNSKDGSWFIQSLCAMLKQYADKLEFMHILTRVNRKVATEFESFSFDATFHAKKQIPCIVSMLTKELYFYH
Caspase-3 (Homo sapiens) + Caspase-9 (Homo sapiens), sequence (P55211 whole entry, looked up): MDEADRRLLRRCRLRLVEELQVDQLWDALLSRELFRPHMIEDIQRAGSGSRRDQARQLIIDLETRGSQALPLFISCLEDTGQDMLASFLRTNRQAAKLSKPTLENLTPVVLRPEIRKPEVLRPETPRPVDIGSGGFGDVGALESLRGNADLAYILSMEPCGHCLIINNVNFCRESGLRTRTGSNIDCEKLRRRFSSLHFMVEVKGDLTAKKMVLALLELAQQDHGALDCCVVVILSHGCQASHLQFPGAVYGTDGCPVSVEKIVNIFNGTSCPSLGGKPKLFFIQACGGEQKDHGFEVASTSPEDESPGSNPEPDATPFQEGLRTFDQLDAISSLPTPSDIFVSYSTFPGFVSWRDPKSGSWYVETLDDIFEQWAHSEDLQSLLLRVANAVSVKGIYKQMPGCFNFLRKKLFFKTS
Turning to `CCCCCCc1cc2cc(-c3nnc(-c4ccccc4OC)o3)c(=O)oc2cc1O`, the IC50 was 14.7 µM.

On to `CC(=O)N(Cc1ccc(F)cc1)C1=C(NCCc2ccccc2)C(=O)c2ccccc2C1=O`, for which the IC50 was 8.49 µM.

Consider `CSc1ccc(C=NNc2ccc(S(=O)(=O)Nc3ccccc3C(=O)O)cc2[N+](=O)[O-])cc1`, for which the IC50 was 8.5 µM.

`COc1ccc(NC2=C(NCCO)C(=O)c3ccccc3C2=O)cc1`: the concentration for half-maximal inhibition (IC50) is 10.6 µM.

As to `CCN(CC)CCOC(=O)c1ccc(N/C=C(/C#N)c2nc(-c3ccc4c(c3)OCO4)cs2)cc1`, the IC50 was > 100 µM (inactive).

With `CC1=NN(c2ccc(C(F)(F)F)cn2)C(=O)C1`, the concentration for half-maximal inhibition (IC50) was 8.21 µM.

Take `Oc1cccc(/C=N/Nc2cc(N3CCCC3)nc(N3CCCC3)n2)c1`: the half-maximal inhibitory concentration (IC50) is 12.5 µM.

In the case of `O=[N+]([O-])c1ccc(N/N=C/c2ccc(O)c(O)c2O)c(S(=O)(=O)N2CCOCC2)c1`, the 50% inhibitory concentration (IC50) is 20.4 µM.

Consider `CC(C)c1ccc(/C=N/Nc2cc(N3CCOCC3)nc(N3CCOCC3)n2)cc1`, for which the IC50 is > 100 µM (inactive).

With `O=C(N/N=C/c1cc(Cl)cc([N+](=O)[O-])c1O)NC12CC3CC(CC(C3)C1)C2`, the half-maximal inhibitory concentration (IC50) was 9.15 µM.

Regarding `CCCCCCc1cc2cc(-c3nnc(-c4ccccc4)o3)c(=O)oc2cc1O`, the IC50 is 6.31 µM.

With `CCOC(=O)C1=C(c2ccccc2)NC(N)=NC1c1ccc(OCc2ccc(C(=O)OC)cc2)cc1` (stereo not drawn), the IC50 was 16 µM.

As to `Oc1ccc(/C=N/Nc2cc(N3CCCC3)nc(N3CCCC3)n2)cc1`, the 50% inhibitory concentration (IC50) was 5.44 µM.

For `O=C1C(O)=C(O)C(=O)c2ccccc21`, the half-maximal inhibitory concentration (IC50) was 10.2 µM.

For the compound `CC(C)CCC(C)N=Cc1c(O)n(Cc2ccccc2)c(=O)c2ccccc12` (stereo not drawn), the half-maximal inhibitory concentration (IC50) was 4.43 µM.

For `COc1ccc(/C=N/Nc2cc(N3CCCC3)nc(N3CCCC3)n2)cc1`, the IC50 is 3.91 µM.

As for `Oc1ccc(/C=N/Nc2cc(N3CCCC3)nc(N3CCCC3)n2)cc1O`, the half-inhibitory concentration (IC50) is 10.7 µM.

As for `O=C1C(C2=C(O)c3ccccc3C2=O)=Nc2ccccc21`, the IC50 was 5.3 µM.

On to `CN(C)c1cc(N/N=C\c2ccccc2)nc(N(C)C)n1`, for which the IC50 is 3.53 µM.

On to `Oc1ccccc1/C=N/Nc1cc(N2CCCC2)nc(N2CCCC2)n1`, for which the 50% inhibitory concentration (IC50) was 2.51 µM.

With `CCN(CC)CCOC(=O)c1ccc(N/C=C(/C#N)c2nc(-c3cc4ccccc4oc3=O)cs2)cc1`, the IC50 is > 100 µM (inactive).

For `O=C1C(Cl)=C(NCCN2CCOCC2)C(=O)c2ccccc21`, the half-maximal inhibitory concentration (IC50) was 23.3 µM.

Consider `O=C1C(Cl)=C(NCc2cccnc2)C(=O)c2ccccc21`, for which the IC50 was 8.43 µM.

Consider `CC1=NN(c2ccc(Cl)cc2)C(=O)C1C(c1ccccc1O)c1c(C)[nH]n(-c2ccc(Cl)cc2)c1=O` (stereo not drawn), for which the IC50 is 46.1 µM.

For `CCCc1[nH]nc2c1C(c1ccc(OC)c(CSC3=NCCS3)c1)C(C#N)=C(N)O2` (stereo not drawn), the IC50 is 14.3 µM.

With `Cc1[nH]n(-c2ccccc2)c(=O)c1/C=N/Nc1nncc(-c2ccccc2)n1`, the IC50 was 2.23 µM.

Turning to `O=c1cc(N/N=C/c2ccccc2)[nH]c(=O)[nH]1`, the concentration for half-maximal inhibition (IC50) was 19.4 µM.

Regarding `CCN(CC)CCCNC1=C(Cl)C(=O)c2ccccc2C1=O`, the concentration for half-maximal inhibition (IC50) is 16.1 µM.

Regarding `COc1ccc(/C=N/Nc2cc(N(C)C)nc(N(C)C)n2)cc1`, the IC50 is 1.16 µM.

With `O/C=c1\ccc2cccc3nc(C(F)(F)F)nc1c23`, the concentration for half-maximal inhibition (IC50) is 11.8 µM.

In the case of `CCOC(=O)C1=C(c2ccccc2)NC(N)=NC1c1ccc(OCc2ccc(Cl)cc2)c(OC)c1` (stereo not drawn), the concentration for half-maximal inhibition (IC50) is 15.8 µM.

Turning to `CCC(=O)N(C1=C(NC)C(=O)c2ccccc2C1=O)C(C)C`, the IC50 was 24.6 µM.

Consider `Cc1ccc(NC2=C(NCCO)C(=O)c3ccccc3C2=O)cc1`, for which the IC50 is 6.91 µM.

As to `Oc1ccc(/C=N\Nc2cc(N3CCOCC3)nc(N3CCOCC3)n2)c(O)c1`, the concentration for half-maximal inhibition (IC50) is 57.9 µM.

`O=C1C(Cl)=C(NCCN2CCCCC2)C(=O)c2ccccc21`: the IC50 is 6.08 µM.

Take `CCN(CC)CCOC(=O)c1ccc(N/C=C(/C#N)c2nc(-c3ccc(OC)c(OC)c3)cs2)cc1`: the IC50 was > 100 µM (inactive).

With `CN(C)c1cc(N/N=C/c2ccccc2C(F)(F)F)nc(N(C)C)n1`, the IC50 was 6.79 µM.

Take `CC1(C)C=C2C(=NN(c3ccccc3)C(N)=C2C#N)CO1`: the half-maximal inhibitory concentration (IC50) is 4.31 µM.
